Consider 1 compound from patent publication US9408835B2, “Pharmaceutical composition for oral administration” (ASTELLAS PHARMA INC., priority 2013, dated 2016).

Values after ≈ are worked out from the molar mass of the structure shown. Like-named read-outs stand apart in the source and are kept apart here.

Data set [1] in a line: Solubility of compound A in dissolution test fluids and water. It counts as physicochemical.
Data set [2] has as its target T1, Janus kinase 3 (Homo sapiens, UniProt P52333).
T1 sequence (P52333 1-1124): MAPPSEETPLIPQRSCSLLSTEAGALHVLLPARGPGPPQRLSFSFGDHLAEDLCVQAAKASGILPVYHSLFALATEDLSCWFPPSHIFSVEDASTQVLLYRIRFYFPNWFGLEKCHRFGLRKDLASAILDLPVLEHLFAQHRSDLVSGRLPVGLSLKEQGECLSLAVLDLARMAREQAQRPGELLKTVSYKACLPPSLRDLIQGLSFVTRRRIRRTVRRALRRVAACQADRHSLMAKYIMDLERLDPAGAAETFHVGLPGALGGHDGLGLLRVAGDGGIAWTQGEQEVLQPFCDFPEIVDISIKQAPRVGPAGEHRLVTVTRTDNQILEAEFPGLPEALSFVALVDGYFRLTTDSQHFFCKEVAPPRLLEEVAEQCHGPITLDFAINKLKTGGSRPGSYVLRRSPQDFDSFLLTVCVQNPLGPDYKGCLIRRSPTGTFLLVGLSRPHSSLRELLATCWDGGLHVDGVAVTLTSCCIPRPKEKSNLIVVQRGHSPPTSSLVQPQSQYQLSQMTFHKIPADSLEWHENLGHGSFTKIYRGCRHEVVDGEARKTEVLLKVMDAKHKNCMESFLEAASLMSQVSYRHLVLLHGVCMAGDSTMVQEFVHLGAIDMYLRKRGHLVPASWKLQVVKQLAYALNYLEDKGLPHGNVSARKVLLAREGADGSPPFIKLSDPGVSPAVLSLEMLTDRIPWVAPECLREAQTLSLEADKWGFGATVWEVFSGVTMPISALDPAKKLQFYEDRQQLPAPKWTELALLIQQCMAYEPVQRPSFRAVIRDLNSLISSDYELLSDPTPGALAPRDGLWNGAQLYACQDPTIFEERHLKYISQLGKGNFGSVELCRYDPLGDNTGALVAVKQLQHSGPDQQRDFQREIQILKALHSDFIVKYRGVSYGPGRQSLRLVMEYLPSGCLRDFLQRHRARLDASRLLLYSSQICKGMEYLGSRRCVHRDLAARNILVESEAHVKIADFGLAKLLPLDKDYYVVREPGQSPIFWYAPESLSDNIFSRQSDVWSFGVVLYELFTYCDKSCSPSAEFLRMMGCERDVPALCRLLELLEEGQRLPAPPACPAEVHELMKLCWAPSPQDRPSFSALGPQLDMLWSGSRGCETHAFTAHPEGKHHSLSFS
The note with it: reported in Patent literature 1; cited from earlier work.

Usually solubility stands for how much of the substance goes into solution per volume. For the compound `NC(=O)c1cnc2[nH]ccc2c1N[C@@H]1[C@@H]2CC3C[C@H]1C[C@@](O)(C3)C2` [compound A, 4-{[(1R,2s,3S,5s,7s)-5-hydroxy-2-adamantyl]amino}-1H-pyrrolo[2,3-b]pyridine-5-carboxamide], in data set [1] (JP1 pH 1.2 vs pH 6.8), the “difference in solubility between acidic and neutral pH range” value is on record as “about 1,000 times”. For the same compound, the solubility is approximately 8 µg/mL (≈ 0.0245 mM) in data set [1] (Japanese Pharmacopoeia, aqueous buffer, 2nd fluid for dissolution test JP2 (pH 6.8), read-out: solubility at a neutral pH range); approximately 8600 µg/mL (≈ 26.3 mM) in data set [1] (Japanese Pharmacopoeia, simulated gastric fluid, 1st fluid for dissolution test JP1 (pH 1.2), read-out: solubility at an acidic pH range); approximately 11 µg/mL (≈ 0.0337 mM) in data set [1] (aqueous buffer, pH 6.8 phosphate buffer, USP, read-out: solubility at a neutral pH range); approximately 12500 µg/mL (≈ 38.3 mM) in data set [1] (water, read-out: solubility in water). Moreover, the JAK3 inhibitory activity result in data set [2] is recorded as “superior”.
